Experimental findings from patent US10968210B2, “Diamino-alkylamino-linked arylsulfonamide compounds with selective activity in voltage-gated sodium channels” (Merck Sharp & Dohme Corp., priority 2016, dated 2021) are described below.

Some results are limits rather than exact numbers.

In assay [1] the target is T1, human Nav 1.7 channels stably expressed in HEK 293 cells (Homo sapiens, UniProt Q15858).
T1 construct: expressed in transfected cells; host or cells: HEK 293
Nature of the assay: IonWorks Quattro automated patch-clamp, inactivated state block of Nav 1.7. The class given is cell-based. The following applies: double-pulse protocol, HEK 293 cells held at -100 mV, read-out: potency for the Nav 1.7 sodium ion channel (IC50, IonWorks). How it is done:
(§1) IonWorks® Experimental Procedure
(§2) Compounds were tested on human Nav 1.7 and Nav 1.5 channels stably expressed in HEK 293 cells. Sodium current measurements on IonWorks Quattro: An automated patch-clamp assay on the IonWorks Quattro platform (Molecular Devices) was used to measure state-dependent inhibition of human Nav 1.7 and Nav 1.5 channels. Cells were sealed on a planar substrate using the Population Patch Plate (PPC) technology. Electrical access was obtained using both nystatin and amphotericin. A double-pulse protocol was used for the determination of IC50 values for inactivated state block. Nav 1.7 and Nav 1.5 expressing cells were voltage clamped at −100 mV and −110 mV, respectively. A depolarizing prepulse to −10 mV (Nav 1.7) or −30 mV (Nav 1.5) for 1000 ms followed by a 10 ms repolarization to ˜100 mV (Nav1.7) or −110 mV (Nav 1.5) was given to generate fractional channel inactivation of ˜50%, followed by a 10 ms test pulse to −10 mV (Nav 1.7) or −30 mV (Nav 1.5) to measure peak current in control conditions and after compound addition. The following recording solutions were used (mM). External: 150 NaCl, 2 CaCl2, 5 KCl, 1 Mg Cl2, 10 HEPES, 12 Dextrose; internal: 120 CsF, 30 CsCl, 10 EGTA, 5 HEPES, 5 NaF, 2 MgCl2.
(§3) For all electrophysiology experiments, offline analysis was used to determine percent inhibition as a function of drug concentration. IC50 values were determined by fitting to the Hill equation.
(§4) The various compounds in Examples 1 through 4 and Tables 1 through 3 exemplified above were assayed for activity and selectivity using the foregoing IonWorks® technique. The results are reported in the following paragraph in a format expressing the identification of the compound with reference Example and compound (e.g. Ex 1-9 is Example 1, compound 9) followed by the observed potency in nM and the ratio of Nav1.7 potency: Nav1.5 potency as described here. Thus, Ex1-9: 1.7=65/ratio=641 identifies compound Example 1, compound 9 as having 65 nM potency for the Nav 1.7 sodium ion channel (as measured by IonWorks®) and a ratio of 641 Nav 1.7: Nav 1.5 potency, determined by IonWorks® measurement.
A general note: The patch-clamp technique gives a direct electrical read-out from membranes.

In assay [2] the target is T2, human Nav 1.5 channels stably expressed in HEK 293 cells (Homo sapiens, UniProt Q14524).
T2 construct: expressed in transfected cells; host or cells: HEK 293
Nature of the assay: IonWorks Quattro automated patch-clamp, inactivated state block of Nav 1.5 (reported as ratio to Nav 1.7 potency). The class given is cell-based. Particulars: selectivity for Nav 1.7 over Nav 1.5, both by IonWorks. How it is done: as §1, §2, §3, §4

T1 sequence (Q15858 whole entry): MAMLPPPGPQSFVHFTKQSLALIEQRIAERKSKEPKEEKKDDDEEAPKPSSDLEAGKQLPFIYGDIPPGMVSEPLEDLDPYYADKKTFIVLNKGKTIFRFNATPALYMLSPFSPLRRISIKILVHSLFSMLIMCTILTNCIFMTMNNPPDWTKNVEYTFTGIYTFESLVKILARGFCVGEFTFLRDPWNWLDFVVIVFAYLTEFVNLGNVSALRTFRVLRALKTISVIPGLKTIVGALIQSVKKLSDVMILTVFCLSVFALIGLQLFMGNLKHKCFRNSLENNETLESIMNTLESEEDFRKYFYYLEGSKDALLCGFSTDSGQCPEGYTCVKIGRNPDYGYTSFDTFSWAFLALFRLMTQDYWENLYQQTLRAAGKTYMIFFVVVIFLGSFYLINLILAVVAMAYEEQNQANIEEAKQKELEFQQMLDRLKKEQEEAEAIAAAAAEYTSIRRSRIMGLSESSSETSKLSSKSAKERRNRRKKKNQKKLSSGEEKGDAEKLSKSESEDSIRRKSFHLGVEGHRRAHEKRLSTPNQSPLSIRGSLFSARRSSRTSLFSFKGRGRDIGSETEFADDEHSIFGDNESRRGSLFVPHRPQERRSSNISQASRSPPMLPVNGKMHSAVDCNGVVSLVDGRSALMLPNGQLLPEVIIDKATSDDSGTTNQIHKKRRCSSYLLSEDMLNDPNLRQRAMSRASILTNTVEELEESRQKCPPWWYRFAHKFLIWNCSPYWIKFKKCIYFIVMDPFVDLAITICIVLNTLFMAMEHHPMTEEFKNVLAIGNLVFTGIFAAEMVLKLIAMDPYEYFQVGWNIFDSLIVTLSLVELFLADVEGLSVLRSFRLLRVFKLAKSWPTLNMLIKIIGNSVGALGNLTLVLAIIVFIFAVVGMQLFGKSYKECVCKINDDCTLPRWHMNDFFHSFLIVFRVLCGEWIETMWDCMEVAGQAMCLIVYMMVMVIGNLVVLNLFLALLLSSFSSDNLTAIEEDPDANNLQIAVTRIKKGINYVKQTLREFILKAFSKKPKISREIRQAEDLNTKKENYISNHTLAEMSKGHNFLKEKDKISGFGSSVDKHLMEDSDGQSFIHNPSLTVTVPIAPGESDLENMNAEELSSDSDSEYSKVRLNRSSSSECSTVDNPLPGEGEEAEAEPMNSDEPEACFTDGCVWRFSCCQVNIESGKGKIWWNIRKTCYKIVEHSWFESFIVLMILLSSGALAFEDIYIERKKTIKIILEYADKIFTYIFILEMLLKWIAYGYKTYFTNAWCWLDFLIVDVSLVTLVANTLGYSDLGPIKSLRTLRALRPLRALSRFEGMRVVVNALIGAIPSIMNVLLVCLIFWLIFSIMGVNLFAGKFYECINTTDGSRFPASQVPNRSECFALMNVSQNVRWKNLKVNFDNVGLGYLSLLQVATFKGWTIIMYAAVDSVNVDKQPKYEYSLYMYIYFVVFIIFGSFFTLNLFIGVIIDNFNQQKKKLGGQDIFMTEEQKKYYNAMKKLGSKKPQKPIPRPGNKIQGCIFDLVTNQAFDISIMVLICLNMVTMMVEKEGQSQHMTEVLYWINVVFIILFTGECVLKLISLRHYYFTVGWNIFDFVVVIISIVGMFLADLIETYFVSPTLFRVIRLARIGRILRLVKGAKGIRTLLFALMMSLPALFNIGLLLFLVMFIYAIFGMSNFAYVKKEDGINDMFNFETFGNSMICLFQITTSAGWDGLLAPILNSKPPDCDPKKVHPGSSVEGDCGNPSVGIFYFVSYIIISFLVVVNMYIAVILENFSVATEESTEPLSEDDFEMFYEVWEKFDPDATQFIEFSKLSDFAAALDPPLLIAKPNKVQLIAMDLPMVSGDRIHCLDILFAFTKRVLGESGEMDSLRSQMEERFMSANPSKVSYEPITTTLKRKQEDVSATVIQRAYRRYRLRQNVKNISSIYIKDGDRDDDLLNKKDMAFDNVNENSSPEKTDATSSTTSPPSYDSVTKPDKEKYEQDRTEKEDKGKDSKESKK
T2 sequence (Q14524 whole entry): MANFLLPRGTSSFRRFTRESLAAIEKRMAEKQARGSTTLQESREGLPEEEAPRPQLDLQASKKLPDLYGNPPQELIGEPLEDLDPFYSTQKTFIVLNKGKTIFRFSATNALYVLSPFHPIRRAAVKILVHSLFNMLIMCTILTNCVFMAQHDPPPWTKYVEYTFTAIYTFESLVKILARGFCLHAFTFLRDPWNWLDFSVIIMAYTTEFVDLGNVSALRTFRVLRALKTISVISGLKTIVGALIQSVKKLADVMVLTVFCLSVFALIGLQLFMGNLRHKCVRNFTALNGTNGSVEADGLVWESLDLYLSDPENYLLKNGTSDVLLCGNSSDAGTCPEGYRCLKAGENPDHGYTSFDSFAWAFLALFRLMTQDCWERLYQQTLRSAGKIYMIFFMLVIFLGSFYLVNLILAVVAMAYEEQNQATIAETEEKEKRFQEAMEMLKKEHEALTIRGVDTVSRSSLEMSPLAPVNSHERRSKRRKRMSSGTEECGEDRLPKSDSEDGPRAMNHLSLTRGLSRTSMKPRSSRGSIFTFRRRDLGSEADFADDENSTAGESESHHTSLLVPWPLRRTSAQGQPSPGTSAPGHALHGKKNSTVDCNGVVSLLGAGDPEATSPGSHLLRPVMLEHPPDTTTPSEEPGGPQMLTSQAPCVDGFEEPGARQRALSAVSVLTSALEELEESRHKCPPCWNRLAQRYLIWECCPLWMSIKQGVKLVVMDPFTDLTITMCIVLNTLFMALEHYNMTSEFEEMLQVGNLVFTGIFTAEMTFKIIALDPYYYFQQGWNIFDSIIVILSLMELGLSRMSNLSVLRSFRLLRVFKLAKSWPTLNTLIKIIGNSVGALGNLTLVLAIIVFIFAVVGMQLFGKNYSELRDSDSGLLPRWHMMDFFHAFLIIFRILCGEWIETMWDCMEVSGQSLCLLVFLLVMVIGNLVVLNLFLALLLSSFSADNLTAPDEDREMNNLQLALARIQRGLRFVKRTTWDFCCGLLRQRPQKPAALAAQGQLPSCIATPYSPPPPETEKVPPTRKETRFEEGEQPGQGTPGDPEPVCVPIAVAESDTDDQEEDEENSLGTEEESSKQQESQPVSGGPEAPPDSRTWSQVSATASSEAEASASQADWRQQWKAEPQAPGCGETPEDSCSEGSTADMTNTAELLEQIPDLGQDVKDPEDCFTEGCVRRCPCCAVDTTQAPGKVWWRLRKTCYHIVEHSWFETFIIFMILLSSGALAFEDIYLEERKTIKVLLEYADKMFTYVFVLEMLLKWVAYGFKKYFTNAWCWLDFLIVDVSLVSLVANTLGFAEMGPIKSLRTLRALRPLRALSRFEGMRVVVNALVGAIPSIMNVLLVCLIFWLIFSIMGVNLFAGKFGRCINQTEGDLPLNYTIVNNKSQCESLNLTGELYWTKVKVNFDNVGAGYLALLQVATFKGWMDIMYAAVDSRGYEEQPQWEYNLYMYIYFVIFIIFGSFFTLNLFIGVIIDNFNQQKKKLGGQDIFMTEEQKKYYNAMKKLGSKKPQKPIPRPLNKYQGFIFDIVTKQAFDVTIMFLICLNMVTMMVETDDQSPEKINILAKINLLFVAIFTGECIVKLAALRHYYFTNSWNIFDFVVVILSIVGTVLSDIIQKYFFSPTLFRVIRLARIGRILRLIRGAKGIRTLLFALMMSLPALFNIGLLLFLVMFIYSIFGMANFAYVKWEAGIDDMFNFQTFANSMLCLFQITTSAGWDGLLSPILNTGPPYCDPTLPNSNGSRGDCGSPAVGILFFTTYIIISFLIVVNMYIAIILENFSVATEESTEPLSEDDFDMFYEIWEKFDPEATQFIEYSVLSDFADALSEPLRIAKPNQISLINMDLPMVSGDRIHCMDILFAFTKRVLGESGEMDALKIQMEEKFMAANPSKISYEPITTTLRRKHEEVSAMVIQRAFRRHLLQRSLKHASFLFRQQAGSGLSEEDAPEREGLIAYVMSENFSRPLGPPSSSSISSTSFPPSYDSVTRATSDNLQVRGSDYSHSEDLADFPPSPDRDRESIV

As to `O=S(=O)(Nc1ncc(F)s1)c1cc(Cl)c(NCCCCN2C[C@H]3CCCN[C@H]3C2)cc1F` [Ex 16-23, 5-chloro-2-fluoro-N-(5-fluoro-1,3-thiazol-2-yl)-4-({4-[(4aR,7aR)-octahydro-6H-pyrrolo[3,4-b]pyridin-6-yl]butyl}amino)benzene-sulfonamide], the IC50 (as a rule, the concentration that inhibits the measured activity by half) in assay [1] turned out to be 14 nM. For the same compound, in assay [2], the “ratio of Nav 1.7 : Nav 1.5 potency (IonWorks)” value (from here on “ratio”) is on record as greater than 2357.
Consider `O=S(=O)(Nc1nccs1)c1cc(Cl)c(NCCCCN[C@H]2[C@@H]3CC[C@H]2NC3)cc1F` [Ex 1-17, 4-({4-[(1R,4R,7S)-2-azabicyclo[2.2.1]hept-7-ylamino]butyl}amino)-5-chloro-2-fluoro-N-1,3-thiazol-2-ylbenzenesulfonamide], for which the IC50 in assay [1] is 60 nM. Moreover, in assay [2], the “ratio” value was greater than 550.
Turning to `O=S(=O)(Nc1nccs1)c1cc(Cl)c(NCCCCN2CCC3(CCCN3)CC2)cc1F` [Ex 1-14, 5-chloro-4-{[4-(1,8-diazaspiro[4.5]dec-8-yl)butyl]amino}-2-fluoro-N-1,3-thiazol-2-ylbenzenesulfonamide], the IC50 in assay [1] was determined as 38 nM. For the same compound, the “ratio” value in assay [2] is on record as greater than 870.
On to `O=S(=O)(Nc1nccs1)c1cc(Cl)c(NCCCCCNCC2CCN2)cc1F` (centres unmarked) [Ex 9-06, 4-({5-[(azetidin-2-ylmethyl)amino]-pentyl}amino)-5-chloro-2-fluoro-N-1,3-thiazol-2-yl-benzenesulfonamide], for which the IC50 in assay [1] is 200 nM. Moreover, the “ratio” value in assay [2] is greater than 160.
With `O=S(=O)(Nc1nccs1)c1cc(Cl)c(NCCCCNC[C@@H]2CC(F)(F)CN2)cc1F` [Ex 8-2, (S)-5-chloro-4-((4-(((4,4-difluoropyrrolidin-2-yl)methyl)amino)butyl)amino)-2-fluoro-N-(thiazol-2-yl)benzenesulfonamide], the IC50 in assay [1] worked out at 59 nM. The “ratio” value in assay [2] is recorded as 460.
As for `O=S(=O)(Nc1nccs1)c1cc(Cl)c(NCCCCN2CCC3CNCC3C2)cc1F` (centres unmarked) [Ex 1-48, 5-chloro-2-fluoro-4-{[4-(octahydro-5H-pyrrolo[3,4-c]pyridin-5-yl)butyl]amino}-N-1,3-thiazol-2-ylbenzenesulfonamide], in assay [1], the IC50 is 23 nM. Further, the “ratio” value in assay [2] is given as greater than 1434.
The corresponding values for `O=S(=O)(Nc1nccs1)c1cc(Cl)c(NCCCCNC2CNCC(c3ccccc3)C2)cc1F` (centres unmarked) [Ex 1-31, 5-chloro-2-fluoro-4-({4-[(5-phenylpiperidin-3-yl)amino]butyl}amino)-N-1,3-thiazol-2-ylbenzenesulfonamide] are 37 nM and greater than 890.
Turning to `O=S(=O)(Nc1nccs1)c1cc(Cl)c(NCCCCN2CCCC3(CCCN3)C2)cc1F` (centres unmarked) [Ex 1-39, 5-chloro-4-{[4-(1,7-diazaspiro[4.5]dec-7-yl)butyl]amino}-2-fluoro-N-1,3-thiazol-2-ylbenzenesulfonamide], the IC50 in assay [1] was 130 nM. Moreover, the “ratio” value in assay [2] was greater than 250.
`NC[C@@H]1CCN1CCCCNc1cc(F)c(S(=O)(=O)Nc2ncc(F)s2)cc1Cl` [Ex 16-11, 4-({4-[(2S)-2-(aminomethyl)azetidin-1-yl]-butyl}amino)-5-chloro-2-fluoro-N-(5-fluoro-1,3-thiazol-2-yl)-benzene-sulfonamide]: in assay [1], the concentration for half-maximal inhibition (IC50) is 15 nM. For the same compound, the “ratio” value in assay [2] is on record as greater than 1530.
The corresponding values for `N[C@@H]1CCCN(CCCCNc2cc(F)c(S(=O)(=O)Nc3nccs3)cc2Cl)C1` [Ex 1-35, 4-({4-[(3R)-3-aminopiperidin-1-yl]butyl}amino)-5-chloro-2-fluoro-N-1,3-thiazol-2-ylbenzenesulfonamide] are 190 nM and greater than 170.
For `C[C@@H](N)CNCCCCCNc1cc(F)c(S(=O)(=O)Nc2nccs2)cc1Cl` [Ex 9-05, 4-[(5-{[(2R)-2-aminopropyl]-amino}penty)amino]-5-chloro-2-fluoro-N-1,3-thiazol-2-yl-benzenesulfonamide], in that order: 79 nM and greater than 420.
The corresponding values for `O=S(=O)(Nc1nccs1)c1cc(Cl)c(NCCCCN2C[C@H]3CNCC[C@H]3C2)cc1F` [Ex 1-23, 5-chloro-2-fluoro-4-({4-[(3aR,7aR)-octahydro-2H-pyrrolo[3,4-c]pyridin-2-yl]butyl}amino)-N-1,3-thiazol-2-ylbenzenesulfonamide] are 43 nM and greater than 770.
With `NC[C@H]1CCN1CCCCNc1cc(F)c(S(=O)(=O)Nc2ncns2)cc1Cl` [Ex 16-02, 4-({4-[(2R)-2-(aminomethyl)-azetidin-1-yl]butyl}amino)-5-chloro-2-fluoro-N-1,2,4-thiadiazol-5-yl-benzene-sulfonamide], the IC50 in assay [1] was found to be 20 nM. Besides, the “ratio” value in assay [2] is listed as greater than 1650.
The corresponding values for `CNCCNCCCCNc1cc(F)c(S(=O)(=O)Nc2ncns2)cc1F` [Ex 16-47, 2,5-difluoro-4-[(4-{[2-(methylamino)ethyl]amino}-butyl)amino]-N-1,2,4-thiadiazol-5-ylbenzene-sulfonamide] are 74 nM and greater than 460.
For `NCC1CCN1CCCCNc1cc(F)c(S(=O)(=O)Nc2nccs2)cc1Cl` (single isomer, unassigned) [Ex 16-53, (S or R)-4-({4-[2-(aminomethyl)-azetidin-1-yl]butyl}amino)-5-chloro-2-fluoro-N-1,3-thiazol-2-ylbenzene-sulfonamide], in that order: 42 nM and greater than 786.
For `NC[C@H]1CCCN1CCCCNc1cc(F)c(S(=O)(=O)Nc2nccs2)cc1Cl` [Ex 1-41, 4-({4-[(2R)-2-(aminomethyl)pyrrolidin-1-yl]butyl}amino)-5-chloro-2-fluoro-N-1,3-thiazol-2-ylbenzenesulfonamide], in that order: 48 nM and greater than 690.
On to `NCC1CCN(CCCCNc2cc(F)c(S(=O)(=O)Nc3nccs3)cc2Cl)C1` (centres unmarked) [Ex 1-47, 4-({4-[3-(aminomethyl)pyrrolidin-1-yl]butyl}amino)-5-chloro-2-fluoro-N-1,3-thiazol-2-ylbenzenesulfonamide], for which, in assay [1], the IC50 worked out at 22 nM. The “ratio” value in assay [2] is greater than 1500.
For `O=S(=O)(Nc1nccs1)c1cc(Cl)c(NCC(CCNC[C@@H]2CCCN2)c2ccccc2)cc1F` (stereo partly drawn) [Ex 10-3, 5-chloro-2-fluoro-4-((2-phenyl-4-(((S)-pyrrolidin-2-ylmethyl)amino)butyl)amino)-N-(thiazol-2-yl)benzenesulfonamide], in that order: 78 nM and greater than 423.
Consider `O=S(=O)(Nc1nccs1)c1cc(Cl)c(NCCCCCNCC2CCCNC2)cc1F` (centres unmarked) [Ex 9-04, 5-chloro-2-fluoro-4-({5-[(piperidin-3-ylmethyl)-amino]-pentyl}amino)-N-1,3-thiazol-2-yl-benzenesulfonamide], for which the IC50 in assay [1] is 25 nM. The “ratio” value in assay [2] is greater than 1320.
For `N#C[C@H]1CN[C@H](CNCCCCNc2cc(F)c(S(=O)(=O)Nc3nccs3)cc2Cl)C1` [Ex 8-7, 5-chloro-4-{[4-({[(2S,4R)-4-cyanopyrrolidin-2-yl]-methyl}amino)butyl]amino}-2-fluoro-N-1,3-thiazol-2-ylbenzenesulfonamide], in that order: 87 nM and greater than 380.
The corresponding values for `O=S(=O)(Nc1nccs1)c1cc(Cl)c(NCCCCN2CCC3CCC(C2)N3)cc1F` (centres unmarked) [Ex 1-52, 5-chloro-4-{[4-(3,9-diazabicyclo[4.2.1]non-3-yl)butyl]amino}-2-fluoro-N-1,3-thiazol-2-ylbenzenesulfonamide] are 96 nM and greater than 343.
For `O=S(=O)(Nc1nccs1)c1cc(Cl)c(NCC2CCCC(NCC3CCCN3)C2)cc1F` (single isomer, unassigned) [Ex 6-7 Enantiomer B, 5-chloro-2-fluoro-4-((((1S,3R or 1R,3S)-3-(((S)-pyrrolidin-2-ylmethyl)amino)cyclohexyl)methyl)amino)-N-(thiazol-2-yl)benzenesulfonamide], in that order: 35 nM and greater than 940.
